Literature values in patent publication US20190254579A1, “INTEGRATED DEVICES TO CONTINUOUSLY MEASURE BOUND AND UNBOUND ANALYTE FRACTIONS IN BIOFLUIDS” (Eccrine Systems, Inc., priority 2015, published 2019).
≈ marks a conversion by molar mass, not a printed value. Where two headings read alike, the source gives them in different places.

Columns and labels:
[1] = water/octanol

logP [1]	Solubility in Water (stated in words)	Solubility in Water [µg/mL]	Structure (SMILES)
5.1	–	–	CCCC/C=C\CCCCCCCC(=O)O [Myristoleic Acid]
8.3	–	–	CC(C)CCCC(C)CCCC(C)CCCC(C)CC(=O)O (stereo not shown) [Phytanic Acid]
5.6	–	–	CCCCC/C=C\C/C=C\CCCCCCCC(=O)OC(CO)CO [2-Linoleoyl Glycerol]
7	Negligible	–	CCCCC/C=C\C/C=C\C/C=C\C/C=C\CCCC(=O)O [Arachidonic Acid]
6.4	Low	–	CCCCCC/C=C\CCCCCCCC(=O)O [Palmitoleic Acid]
5.7	–	3460 (≈ 11.6 mM)	CCCCCC[C@@H](O)C/C=C\CCCCCCCC(=O)O [Ricinoleic Acid]

Structure (SMILES)	logP [1]	Solubility in Water (stated in words)	Solubility in Water [µg/mL]
CCCCCCCC/C=C\CCCCCCCC(=O)O [Oleic Acid]	7.64	–	–
